Reference: the NIST ThermoML archive (doi:10.1016/j.jct.2004.04.010)
Numbers after ± are expanded uncertainties.

Assay: mn = molality of the nth substance listed, in mol/kg
Details: 298.15 K, 101.3 kPa, Liquid

SMILES	mass density (m1 = 0.2) [kg/m3]	mass density (m1 = 0.4) [kg/m3]	mass density (m1 = 0.6) [kg/m3]	mass density (m1 = 0.8) [kg/m3]	mass density (m1 = 1) [kg/m3]	mass density (m1 = 1.2) [kg/m3]	mass density (m1 = 0.015) [kg/m3]	mass density (m1 = 0.03) [kg/m3]	mass density (m1 = 0.05) [kg/m3]	mass density (m1 = 0.075) [kg/m3]	mass density (m1 = 0.1) [kg/m3]
O=C[C@@H](O)[C@H](O)[C@H](O)CO [D-(-)-arabinose] + O	1008.06 ± 0.2	1018.64 ± 0.22	1028.67 ± 0.23	1038.38 ± 0.24	1047.69 ± 0.24	1056.36 ± 0.27					
O=C[C@H](O)[C@@H](O)[C@H](O)CO [D-xylose] + O	1007.72 ± 0.21	1017.95 ± 0.26	1027.8 ± 0.3	1037.28 ± 0.35	1046.38 ± 0.39	1055.19 ± 0.44					
O=C[C@H](O)[C@@H](O)[C@@H](O)[C@H](O)CO [(+)-galactose] + O	1010.68 ± 0.22	1023.7 ± 0.28	1036.15 ± 0.33	1047.98 ± 0.39	1059.4 ± 0.45	1070.22 ± 0.5					
[Cl-].[Cs+] [cesium chloride] + O							998.969 ± 0.14	1000.88 ± 0.14	1003.43 ± 0.14	1006.61 ± 0.14	1009.77 ± 0.15
